Experiments:
[1] = biological target: ligand-binding domain (LBD) of Nurr1 (Homo sapiens, UniProt P43354); experiment: Binding of prostaglandins to Nurr1-LBD (NMR titration)
Source text: Cyclopentenone prostaglandin's A1/A2 are dehydrated metabolites of their precursors, the cyclopentanone prostaglandins E1/E2. In PGE1/E2, a hydroxyl group is attached to the C11 atom, which is responsible for the covalent attachment between PGA1 and Nurr1. This is evident from the electron density observed between the PGA1/A2's C11 atom (Rajan, S. et al. Nat Chem Biol 16, 876-886 (2020); U.S. patent application Ser. No. 16/334,550) and Nurr1's Cys566 sulphur, a characteristic feature of PGA1/A2 binding. […] Based on these one could conclude that both PGA1 and PGE1 can be used to design analogs, preferably using PGE1 which is better suited for chemic synthesis and modifications as it lacks the reactive C11 site, concealed by the hydroxyl group (Rajan, S. et al. Nat Chem Biol 16, 876-886 (2020)). […] One such is the misoprostol, which enhanced Nurr1's transcription function. Thus, we chose PGE1 and Misoprostol as the candidate molecules to make modification.

[2] = biological target: Nurr1 (Homo sapiens, UniProt P43354); experiment: Activation of Nurr1 / Nurr1's transcription function by prostaglandins (stated without method); assay type: cell-based
Chain of Nurr1 (P43354 whole entry, species assumed): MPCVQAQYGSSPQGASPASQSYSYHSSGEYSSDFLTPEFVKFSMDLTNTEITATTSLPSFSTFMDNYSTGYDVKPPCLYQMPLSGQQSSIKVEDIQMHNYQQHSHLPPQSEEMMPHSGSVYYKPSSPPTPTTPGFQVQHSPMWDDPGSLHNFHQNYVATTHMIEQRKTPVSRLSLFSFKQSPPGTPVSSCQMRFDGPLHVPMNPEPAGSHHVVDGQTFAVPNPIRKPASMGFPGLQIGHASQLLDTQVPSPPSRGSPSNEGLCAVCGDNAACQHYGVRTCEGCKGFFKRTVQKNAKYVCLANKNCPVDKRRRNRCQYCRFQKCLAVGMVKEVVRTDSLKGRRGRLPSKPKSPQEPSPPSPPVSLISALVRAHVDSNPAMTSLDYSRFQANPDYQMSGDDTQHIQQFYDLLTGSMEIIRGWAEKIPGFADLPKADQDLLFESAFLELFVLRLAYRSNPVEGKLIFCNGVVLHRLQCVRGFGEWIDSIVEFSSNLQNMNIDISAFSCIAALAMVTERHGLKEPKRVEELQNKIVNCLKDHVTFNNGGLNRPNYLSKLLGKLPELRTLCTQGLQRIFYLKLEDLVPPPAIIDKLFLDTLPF

[3] = tested on: 6-OHDA Parkinson's disease model; experiment: 6-OHDA Parkinson's disease model, apomorphine induced rotational behavior, intranasal administration; assay type: in vivo, C57BL/6 mice; settings: apomorphine (0.5 mg/kg) induced rotation; daily intranasal 0.2 mg/ml; 6-OHDA mice
Protocol: Mice were randomly divided into […]: Control (n=4); 6-OHDA (6-hydroxydopamine)+(n=7), 6-OHDA+PGE1 (n=8); 6-OHDA+BSC15 (the compound of the present invention) (n=8); 6-OHDA+BSC19 (the compound of the present invention) (n=7).
Week 9-10 C57BL/6 mice were intranasally administered daily with 0.2 mg/ml of compounds to be tested for 3 days before 6-OHDA injection. Stereotaxic surgery was performed by injecting 7.5 μg of 6-OHDA into the left striatum (AP: +0.5 mm, ML: −2.0 mm, VD: −3.5 mm) of the mouse. Compounds to be tested, i.e., PGE1, BSC15 and BSC19 were prepared by double emulsion solvent evaporation of 1:4 molar ratio with 2-hydroxypropyl-β-cyclodextrin. After surgical recovery, the daily intranasal administration continued with a weekly assessment of apomorphine (0.5 mg/kg) induced rotational behavior. Animal care and handling were performed according to the protocol approved by Nanyang Technological University's Institutional Animal Care and Use Committee.

Chain of ligand-binding domain (LBD) of Nurr1 (P43354 360-595 limits assumed): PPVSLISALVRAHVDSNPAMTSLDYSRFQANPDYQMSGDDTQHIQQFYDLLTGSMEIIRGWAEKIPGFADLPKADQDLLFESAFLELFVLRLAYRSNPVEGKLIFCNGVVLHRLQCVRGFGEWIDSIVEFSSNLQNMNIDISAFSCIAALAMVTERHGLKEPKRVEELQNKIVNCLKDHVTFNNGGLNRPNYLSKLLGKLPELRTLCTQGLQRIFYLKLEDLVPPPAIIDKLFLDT

SMILES | direct binding to the ligand-binding domain (LBD) of Nurr1 [1] | binding site on Nurr1-LBD by NMR titration [1] | activation of Nurr1 [2] | rotation number [3]
CCCCC[C@H](O)/C=C/[C@H]1C=CC(=O)[C@@H]1CCCCCCC(=O)O [PGA1] | directly bind | interact at same binding site on Nurr1-LBD | activate | –
CCCCC[C@H](O)/C=C/[C@H]1[C@H](O)CC(=O)[C@@H]1CCCCCCC(=O)O [PGE1, Prostaglandin E1] | directly bind | interact at same binding site on Nurr1-LBD | activate | significant reduction
CCCCC[C@H](O)/C=C/[C@H]1[C@H](O)CC(=O)[C@@H]1C/C=C\CCCC(=O)O [PGE2, Prostaglandin E2] | directly bind | – | activate | –
CCCCC[C@H](O)/C=C/[C@H]1C=CC(=O)[C@@H]1C/C=C\CCCC(=O)O [PGA2] | directly bind | – | activate | –

Source: patent US20210139435A1, “PROSTAGLANDIN ANALOGS AND USES THEREOF” (Lifex Biolabs, Inc., priority 2019, published 2021)
